The record followed here is patent US8680159B2, “Bradykinin 1 receptor modulating compounds” (Gruenenthal GmbH, priority 2010, dated 2014).

Where two headings read alike, the source gives them in different places.

For assay [1], the target named is T1, B1R receptor of the rat (CHO K1 cells stably transfected with the B1R gene of the rat) (Rattus norvegicus, UniProt P97583).
T1 construct: expressed in transfected cells; host or cells: CHO K1 cells (Chinese hamster ovary), stably transfected
T1 sequence (P97583 1-337): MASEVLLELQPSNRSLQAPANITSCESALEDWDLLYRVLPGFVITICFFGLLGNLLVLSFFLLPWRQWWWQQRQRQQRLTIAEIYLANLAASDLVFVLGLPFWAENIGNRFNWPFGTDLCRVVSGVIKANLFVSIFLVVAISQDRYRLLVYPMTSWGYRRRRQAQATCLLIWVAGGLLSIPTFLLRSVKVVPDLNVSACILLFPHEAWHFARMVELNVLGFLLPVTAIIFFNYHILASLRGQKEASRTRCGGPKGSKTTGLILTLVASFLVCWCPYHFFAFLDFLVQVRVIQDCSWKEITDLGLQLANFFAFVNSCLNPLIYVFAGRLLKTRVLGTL
Nature of the assay: Functional study on the bradykinin receptor 1 (B1R), Ca2+ fluorescence (Fluo-4) FLIPR/Novostar assay, rB1R cells. As to conditions: for inhibition at 10 µM: CHO-K1, 10 μM. It counts as cell-based. The procedure, abridged: (§1)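 Test compounds (10 μM) were added first and the Ca2+ rise was scored as % activation against Lys-Des-Arg9-bradykinin (≥50 nM, human) or Des-Arg9-bradykinin (≥1 μM, rat). After 6-20 min, the matching agonist was given at its EC80, and % inhibition relative to maximal achievable inhibition was calculated.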

The target of assay [2] is T2, human B1R receptor (CHO K1 cells stably transfected with the human B1R gene) (Homo sapiens, UniProt P46663).
T2 construct: expressed in transfected cells; host or cells: CHO K1 cells (Chinese hamster ovary), stably transfected
T2 sequence (P46663 1-353): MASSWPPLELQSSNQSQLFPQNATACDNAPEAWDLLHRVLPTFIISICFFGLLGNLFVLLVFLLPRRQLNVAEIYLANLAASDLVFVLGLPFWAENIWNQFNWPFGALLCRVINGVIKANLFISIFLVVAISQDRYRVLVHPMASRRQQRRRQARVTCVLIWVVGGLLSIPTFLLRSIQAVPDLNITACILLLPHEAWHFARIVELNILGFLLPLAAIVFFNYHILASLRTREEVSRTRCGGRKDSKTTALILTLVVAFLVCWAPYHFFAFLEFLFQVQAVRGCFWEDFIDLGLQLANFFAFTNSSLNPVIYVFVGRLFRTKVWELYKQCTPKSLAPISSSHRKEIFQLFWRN
Nature of the assay: Functional study on the bradykinin receptor 1 (B1R), Ca2+ fluorescence (Fluo-4) FLIPR/Novostar assay, hB1R cells. It counts as cell-based. The procedure, abridged: as §1

The mark [3] stands for this setting: read-out: % inhibition (rat B1R) at 10 μM.
The mark [4] stands for this setting: CHO-K1, read-out: % inhibition (human B1R) at 10 μM.
Where [5] appears, read: read-out: % Inhibition (r-B1R) at 10 μM.
Where [6] appears, read: CHO-K1, read-out: % Inhibition (h-B1R) at 10 μM.

For `CN(C(=O)c1cc(F)c2c(c1)[C@H](N1Cc3cccc(Cl)c3C1=O)CCO2)C1CCN(c2ccncc2)CC1` [Example H-87, (4R)-4-(4-Chloro-3-oxo-1,2-dihydro-isoindol-2-yl)-8-fluoro-N-methyl-N-(1-pyridin-4-yl-piperidin-4-yl)-3,4-dihydro-2H-chromene-6-carboxylic acid amide], the inhibition at 10 µM in assay [1] (setting [3]) turned out to be 104%; in assay [2] (setting [4]), 39%.

With `CN(C(=O)c1ccc2c(c1)C(NC(=O)c1cncnc1)CCC2)C1CCN(c2ccncc2)CC1` (stereo not shown) [CC_H-08, N-[7-[Methyl-(1-pyridin-4-yl-piperidin-4-yl)-carbamoyl]-1,2,3,4-tetrahydro-naphthalen-1-yl]-pyrimidine-5-carboxylic acid amide], the inhibition at 10 µM in assay [1] (setting [5]) worked out at 104%; in assay [2] (setting [6]) it was 99%.

In the case of `CN(C(=O)NC1CCOc2ccc(C(=O)N(C)C3CCN(c4ccncc4)CC3)cc21)c1ccccc1Cl` (stereo not shown) [CC_H-57, 4-[[(2-Chlorophenyl)-methyl-carbamoyl]amino]-N-methyl-N-(1-pyridin-4-yl-piperidin-4-yl)-3,4-dihydro-2H-chromene-6-carboxylic acid amide], the “% Inhibition (r-B1R) at 10 μM” value in assay [1] (10 μM) is given as 101%. Also, the inhibition at 10 µM in assay [2] (setting [6]) amounted to 100%.

Take `CCN(C(=O)c1ccc2c(c1)[C@H](NC(=O)c1ccccc1Cl)CC2)C1CCN(c2ccncc2)CC1` [Example H-77, (3R)-3-[(2-Chloro-benzoyl)amino]-N-ethyl-N-(1-pyridin-4-yl-piperidin-4-yl)-2,3-dihydro-1H-indene-5-carboxylic acid amide]: the inhibition at 10 µM in assay [1] (setting [3]) is 104%; in assay [2] (setting [4]), 100%.

As to `Cc1cc(N2CCC(N(C)C(=O)c3ccc4c(c3)[C@H](NC(=O)c3ccccc3C)CC4)CC2)nc(C)n1` [Example H-162, (3R)-N-[1-(2,6-Dimethyl-pyrimidin-4-yl)-piperidin-4-yl]-N-methyl-3-[(2-methyl-benzoyl)amino]-2,3-dihydro-1H-indene-5-carboxylic acid amide], the inhibition at 10 µM in assay [1] (setting [3]) came to 105%; in assay [2] (setting [4]), 100%.

On to `CN(C)c1ncc2c(n1)CCN(C1CCC(N(C)C(=O)c3ccc4c(c3)[C@H](NC(=O)c3ccccc3Cl)CC4)CC1)C2` (stereo partly drawn) [Example H-102, (3R)-3-[(2-Chloro-benzoyl)amino]-N-[4-(2-dimethylamino-5,6,7,8-tetrahydro-pyrido[4,3-d]pyrimidin-6-yl)-cyclohexyl]-N-methyl-2,3-dihydro-1H-indene-5-carboxylic acid amide], for which the inhibition at 10 µM in assay [1] (setting [3]) stood at 103%; in assay [2] (setting [4]), 68%.

Regarding `CN(C(=O)c1ccc2c(c1)C(NS(=O)(=O)Cc1ccccc1C(F)(F)F)CC2)C1CCN(c2ccc3cnccc3c2)CC1` (stereo not shown) [CC_H-55, N-(1-Isoquinolin-6-yl-piperidin-4-yl)-N-methyl-3-[[[2-(trifluoromethyl)-phenyl]-methylsulfonyl]amino]-2,3-dihydro-1H-indene-5-carboxylic acid amide], the inhibition at 10 µM stood at 96% in assay [1] (setting [5]) and 99% in assay [2] (setting [6]).

Take `O=C(NCC1CCN(c2ccncc2)CC1)c1ccc2c(c1)[C@H](NC(=O)c1ccccc1Cl)CC2` [Example H-03, (3R)-3-[(2-Chloro-benzoyl)amino]-N-[(1-pyridin-4-yl-piperidin-4-yl)-methyl]-2,3-dihydro-1H-indene-5-carboxylic acid amide]: the inhibition at 10 µM is 108% in assay [1] (setting [3]) and 15% in assay [2] (setting [4]).

In the case of `O=C(NCCC1CCN(c2ccncc2)CC1)c1ccc2c(c1)C(NC(=O)c1ccccc1Cl)CC2` (stereo not shown) [CC_H-34, 3-[(2-Chloro-benzoyl)amino]-N-[2-(1-pyridin-4-yl-piperidin-4-yl)-ethyl]-2,3-dihydro-1H-indene-5-carboxylic acid amide], the results for the inhibition at 10 µM in assay [1] (setting [5]) and in assay [2] (setting [6]) were 104% and 99%, respectively.

Regarding `CN(C(=O)c1ccc2c(c1)C(NC(=O)c1sccc1Cl)CC2)C1CCN(c2ccncc2)CC1` (stereo not shown) [CC_H-29, 3-Chloro-N-[6-[methyl-(1-pyridin-4-yl-piperidin-4-yl)-carbamoyl]-2,3-dihydro-1H-inden-1-yl]-thiophene-2-carboxylic acid amide], the results for the inhibition at 10 µM in assay [1] (setting [5]) and in assay [2] (setting [6]) were 103% and 99%, respectively.

As for `CN(C(=O)c1ccc2c(c1)[C@H](NS(=O)(=O)c1ccccc1)CC2)C1CCN(c2ccncc2)CC1` [Example H-74, (3R)-3-(Benzenesulfonamido)-N-methyl-N-(1-pyridin-4-yl-piperidin-4-yl)-2,3-dihydro-1H-indene-5-carboxylic acid amide], the figures for the inhibition at 10 µM in assay [1] (setting [3]) and in assay [2] (setting [4]) were 104% and 100%, respectively.

As for `CN(C(=O)c1ccc2c(c1)[C@H](NC(=O)Cc1ccccc1)CC2)C1CCN(c2ccncc2)CC1` [Example H-25, (3R)-N-Methyl-3-[(2-phenyl-acetyl)amino]-N-(1-pyridin-4-yl-piperidin-4-yl)-2,3-dihydro-1H-indene-5-carboxylic acid amide], the results for the inhibition at 10 µM in assay [1] (setting [3]) and in assay [2] (setting [4]) were 96% and 100%, respectively.

As for `Cc1cc(N2CCC(N(C)C(=O)c3ccc4c(c3)[C@H](NC(=O)c3cc(C)on3)CC4)CC2)nc(C)n1` [Example H-96, N-[(1R)-6-[[1-(2,6-Dimethyl-pyrimidin-4-yl)-piperidin-4-yl]-methyl-carbamoyl]-2,3-dihydro-1H-inden-1-yl]-5-methyl-isoxazole-3-carboxylic acid amide], the inhibition at 10 µM in assay [1] (setting [3]) is 104%; in assay [2] (setting [4]) it was 100%.

On to `Cc1cc(N2CCC(N(C)C(=O)c3ccc4c(c3)[C@H](NC(=O)C3CCOCC3)CC4)CC2)nc(C)n1` [Example H-89, N-[(1R)-6-[[1-(2,6-Dimethyl-pyrimidin-4-yl)-piperidin-4-yl]-methyl-carbamoyl]-2,3-dihydro-1H-inden-1-yl]-tetrahydro-pyran-4-carboxylic acid amide], for which the inhibition at 10 µM was 89% in assay [1] (setting [3]) and 74% in assay [2] (setting [4]).

For the compound `CN(C(=O)c1ccc2c(c1)C(NC(=O)C1CCCCC1)CC2(C)C)C1CCN(c2ccncc2)CC1` (stereo not shown) [CC_H-14, 3-(Cyclohexanecarbonylamino)-N,1,1-trimethyl-N-(1-pyridin-4-yl-piperidin-4-yl)-2,3-dihydro-indene-5-carboxylic acid amide], the results for the inhibition at 10 µM in assay [1] (setting [5]) and in assay [2] (setting [6]) were 104% and 99%, respectively.

`Cc1cc(N2CCC(N(C)C(=O)c3ccc4c(c3)[C@H](NC(=O)c3cc(C(F)(F)F)ccc3Cl)CC4)CC2)nc(C)n1` [Example H-137, (3R)-3-[[2-Chloro-5-(trifluoromethyl)-benzoyl]amino]-N-[1-(2,6-dimethyl-pyrimidin-4-yl)-piperidin-4-yl]-N-methyl-2,3-dihydro-1H-indene-5-carboxylic acid amide]: the inhibition at 10 µM in assay [1] (setting [3]) came out at 109%; in assay [2] (setting [4]), 99%.

In the case of `CN1CCN(C2CCC(NC(=O)c3ccc4c(c3)[C@H](NC(=O)c3ccccc3Cl)CC4)C(C)(C)C2)CC1` (stereo partly drawn) [Example H-14, (3R)-3-[(2-Chloro-benzoyl)amino]-N-[2,2-dimethyl-4-(4-methyl-piperazin-l-yl)-cyclohexyl]-2,3-dihydro-1H-indene-5-carboxylic acid amide], in assay [1] (10 μM), the “% inhibition (rat B1R) at 10 μM” value is reported as 76%. Further, in assay [2], the “% inhibition (human B1R) at 10 μM” value turned out to be 64%.

The inhibition is the change of the read-out against control, counted positive when it falls.
